Reference: patent US9000176B2, “Pyrazole derivatives, preparation method thereof, and composition for prevention and treatment of osteoporosis containing same” (Ewha University—Industry Collaboration Foundation, priority 2009, dated 2015)

Tested on: generation of reactive oxygen species in the murine kidney membrane
Assay: Lucigenin-based assay of reactive oxygen species generation in isolated kidney membrane
Assay type: biochemical, rat (Rattus norvegicus)
Conditions: 37° C. for 10 minutes, luminescence, compound 40, 10, 2.5, 0.625, 0 μM, read-out: EC50 (inhibition of generation of reactive oxygen species)
Description: A kidney was isolated from a rat (Rattus norvegicus) and washed with phosphate buffered saline (PBS). The tissue was soaked in 20 mL of PBS buffer containing a protease inhibitor (Aprotinin 1 μg/mL-USB 11388, Leupeptin 1 μg/mL-USB-18413), finely disrupted using a mixer, and then transferred to a 50 mL conical tube (SPL 50050), followed by centrifugation at 10000 g for 10 minutes (MF-600 plus, Hanil) to sediment the undisrupted tissue. The supernatant was separated and collected in a fresh tube. The tube was placed in ice and subjected to sonication about 4 times each cycle for 30 seconds until the supernatant became clear (Branson Digital Sonifier, Model CE Converter 102C). The supernatant was transferred to a high-speed centrifugation tube (Beckman 331372) and then centrifuged at 100000 g for 1 hour (Optima™ L-90 K Preparative Ultracentrifuge, SW41Ti rotor, Beckman). After the supernatant was discarded, the remaining pellet was washed once with cold PBS and dissolved in 500 μL of cold PBS containing a protease inhibitor to obtain a murine kidney membrane.
Reactive oxygen species generated in the thus-obtained kidney membrane was analyzed by a lucigenin-based assay.
Specifically, each of the compounds synthesized in Examples of the present invention (40 μM, 10 μM, 2.5 μM, 0.625 μM, and 0 μM) was placed in a luminescence assay microplate, and the isolated kidney membrane and lucigenin were sequentially added thereto, followed by incubation at 37° C. for 10 minutes. Then, the intensity of luminescence was measured in a luminometer (MicroLumatPlus LB96V Microplate Luminometer, Berthold) to assay the generation of reactive oxygen species in the murine kidney membrane, followed by calculating an EC50 value of the inventive compounds.

| Structure (SMILES) | EC50 |
| --- | --- |
| Oc1cc(-c2ccc(Br)cc2)nn1-c1ccccn1 [Compound 15, 3-(4-bromophenyl)-1-(pyridin-2-yl)-1H-pyrazol-5-ol] | 1200 nM |
| Oc1cc(-c2ccccc2I)nn1-c1ccccn1 [Compound 16, 3-(2-iodophenyl)-1-(pyridin-2-yl)-1H-pyrazol-5-ol] | 2500 nM |
| Oc1cc(-c2cccc(I)c2)nn1-c1ccccn1 [Compound 17, 3-(3-iodophenyl)-1-(pyridin-2-yl)-1H-pyrazol-5-ol] | 700 nM |
| Oc1cc(-c2ccc(I)cc2)nn1-c1ccccn1 [Compound 18, 3-(4-iodophenyl)-1-(pyridin-2-yl)-1H-pyrazol-5-ol] | 450 nM |
| Oc1cc(-c2ccc(I)cc2)nn1-c1ncccn1 [Compound 19, 3-(4-iodophenyl)-1-(pyrimidin-2-yl)-1H-pyrazol-5-ol] | 800 nM |
| CC(C)[Si](Oc1cc(-c2ccc(I)cc2)nn1-c1ccccn1)(C(C)C)C(C)C [Compound 20, 2-(3-(4-iodophenyl)-5-(triisoropylsilyloxy)-1H-pyrazol-1-yl)pyridine] | 1500 nM |
| CC(=O)Oc1cc(-c2ccc(Br)cc2)nn1-c1ccccn1 [Compound 26, 3-(4-bromophenyl)-1-(pyridin-2-yl)-1H-pyrazol-5-yl acetate] | 1300 nM |
| CC(C)(C)OC(=O)Oc1cc(-c2ccc(-c3ccccc3)cc2)nn1-c1ncccn1 [Compound 48, 3-(biphenyl-4-yl)-1-(pyrimidin-2-yl)-1H-pyrazol-5-yl tert-butyl carbonate] | 1200 nM |
| CC(C)[Si](Oc1cc(-c2ccc(-c3ccc(Br)cc3)cc2)nn1-c1ccccn1)(C(C)C)C(C)C [Compound 51, 2-(3-(4′-bromobiphenyl-4-yl)-5-(triisopropylsilyloxy)-1H-pyrazol-1-yl)pyridine] | 400 nM |
| c1ccc(B(Oc2cc(-c3ccc(-c4ccccc4)cc3)nn2-c2ccccn2)c2ccccc2)cc1 [Compound 52, 2-(3-(biphenyl-4-yl)-5-(diphenylboryloxy)-1H-pyrazol-1-yl)pyridine] | 500 nM |
| Oc1cc(-c2ccc(-c3ccccc3)cc2)nn1-c1ccccn1 [Compound 54, 3-(biphenyl-4-yl)-1-(pyridin-2-yl)-1H-pyrazol-5-ol] | 400 nM |
| Oc1cc(-c2ccc(-c3ccc4c(c3)OCO4)cc2)nn1-c1ccccn1 [Compound 55, 3-(4-(benzo[d][1,3]-dioxol-5-yl)phenyl)-1-(pyridin-2-yl)-1H-pyrazol-5-ol] | 500 nM |
| Oc1cc(-c2ccccc2-c2ccc3c(c2)OCO3)nn1-c1ccccn1 [Compound 59, 3-(2-(benzo[d][1,3]dioxol-5-yl)phenyl)-1-(pyridin-2-yl)-1H-pyrazol-5-ol] | 1400 nM |
| Oc1cc(-c2cccc(-c3ccccc3)c2)nn1-c1ccccn1 [Compound 61] | 400 nM |
| Oc1cc(-c2cccc(-c3ccccc3Oc3ccccc3)c2)nn1-c1ccccn1 [Compound 65, 3-(2′-phenoxybiphenyl-3-yl)-1-(pyridin-2-yl)-1H-pyrazol-5-ol] | 625 nM |
| Oc1cc(-c2cccc(-c3cccc(-c4ccccc4)c3)c2)nn1-c1ccccn1 [Compound 67, 3-(3′-phenylbiphenyl-3-yl)-1-(pyridin-2-yl)-1H-pyrazol-5-ol] | 400 nM |
| Oc1cc(-c2ccc(-c3ccc(Br)cc3)cc2)nn1-c1ccccn1 [Compound 72, 3-(4′-bromobiphenyl-4-yl)-1-(pyridin-2-yl)-1H-pyrazol-5-ol] | 2500 nM |
| Oc1cc(-c2ccc(-c3ccccc3Oc3ccccc3)cc2)nn1-c1ccccn1 [Compound 74, 3-(2′-phenoxybiphenyl-4-yl)-1-(pyridin-2-yl)-1H-pyrazol-5-ol] | 400 nM |
| Oc1cc(-c2ccc(-c3ccccc3)cc2)nn1-c1ncccn1 [Compound 75, 3-(biphenyl-4-yl)-1-(pyrimidin-2-yl)-1H-pyrazol-5-ol] | 600 nM |
| CCCc1c(-c2ccccc2)nn(-c2ccccn2)c1O [Compound 78, 3-phenyl-4-propyl-1-(pyridin-2-yl)-1H-pyrazol-5-ol] | 10000 nM |
| Oc1c(Cc2ccccc2)c(-c2ccccc2)nn1-c1ccccn1 [Compound 79, 4-benzyl-3-phenyl-1-(pyridin-2-yl)-1H-pyrazol-5-ol] | 3000 nM |
